Where only a bound is given, the exact number is not on record here.

The target in one assay is T1, PPARγ (Homo sapiens, UniProt P37231).
T1 sequence (P37231 1-505): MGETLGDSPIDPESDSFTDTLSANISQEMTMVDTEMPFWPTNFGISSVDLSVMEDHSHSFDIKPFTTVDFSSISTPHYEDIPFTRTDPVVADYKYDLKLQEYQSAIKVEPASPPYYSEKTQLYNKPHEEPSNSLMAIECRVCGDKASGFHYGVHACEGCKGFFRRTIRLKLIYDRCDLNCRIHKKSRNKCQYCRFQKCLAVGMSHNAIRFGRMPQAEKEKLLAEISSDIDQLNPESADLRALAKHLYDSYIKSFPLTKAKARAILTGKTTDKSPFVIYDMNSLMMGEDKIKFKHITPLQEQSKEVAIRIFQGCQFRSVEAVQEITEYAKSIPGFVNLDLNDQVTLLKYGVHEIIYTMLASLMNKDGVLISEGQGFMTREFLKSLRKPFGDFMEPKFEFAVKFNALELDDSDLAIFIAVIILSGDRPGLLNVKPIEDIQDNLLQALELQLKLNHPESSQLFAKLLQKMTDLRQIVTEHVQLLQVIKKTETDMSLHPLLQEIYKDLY
Description: Gel-based screening for PPARγ binders using probe 24c-Cy3. On the set-up: purchased Cayman Chemical. The class given is binding. The following applies: 20 μM, 1 h, then 10 μM 24c-Cy3; 19a named first, 28 second.

Assay [1] addresses T2, Glyoxylate reductase/hydroxypyruvate reductase (GRHPR) (Homo sapiens, UniProt Q9UBQ7).
T2 construct: endogenous in cells; host or cells: MCF7
Description: In situ competitive profiling in live MCF7 cells (LFQ): GRHPR. The class given is cell-based. The following applies: protein GRHPR, 4 h, then 10 µM 24c, n=4. The text has this:
(§1) In our efforts to determine the direct molecular targets of deoxyelephantopin we first performed a gel-based competitive in situ proteomic profiling assay[41] […] While the greater conformational flexibility of probe 24c could potentially lead to more promiscuous target engagement relatively to deoxyelephantopin, it was favoured based on the fact that an alkyne moiety appended to the rigid scaffold of deoxyelephantopin may hinder some of its interactions. MCF7 cells were pretreated with various concentrations of deoxyelephantopin for 4 h, harvested, lysed and the lysates were treated with the fluorogenic probe 24c-Cy3 (10 μM; Supplementary Fig. 10). […] Furthermore, cells were pretreated with 20 μM concentration of deoxyelephantopin or 24c and the proteomic profiles were compared (Fig. 6b, Supplementary Fig. 11). Multiple bands were detected that were equally competed by both DEP and 24c, thus again confirming that 24c can be used as an acceptable clickable analogue of deoxyelephantopin in pulldown assays. Having established the optimal labelling conditions by SDS–PAGE, we next carried out a mass spectrometry-based competitive profiling assay[42] coupled with the method of stable isotope labelling of amino acids in culture (SILAC)[43]. […]
(§2) Figure 6 Proteome-wide identification of deoxyelephantopin targets. […] Quantification was performed using label-free quantification (LFQ) method (n=4). […]

Assay [2] addresses T3, Thioredoxin domain-containing protein 12 (TXNDC12) (Homo sapiens, UniProt O95881).
T3 construct: endogenous in cells; host or cells: MCF7
Put plainly: In situ competitive profiling in live MCF7 cells (LFQ): TXNDC12. The following applies: 4 h, then 10 µM 24c, n=4. The class given is cell-based.
Text: as §1, §2

For the next assay, the target named is T4, Heme oxygenase 2 (HMOX2) (Homo sapiens, UniProt P30519).
T4 construct: endogenous in cells; host or cells: MCF7
Description: In situ competitive profiling in live MCF7 cells (LFQ): HMOX2. The class given is cell-based. The following applies: protein HMOX2, 4 h, then 10 µM 24c, n=4.
Text: as §1, §2

In assay [3] the test system is 11 identified targets in MCF7 cells. Put plainly: Targeted in situ competitive profiling in live MCF7 cells, all 11 targets. In kind it is cell-based, human. The following applies: intact MCF7 cells, 20 µM, 4 h, then 10 µM 24c.
Text: as §1, §2

T2 sequence (Q9UBQ7 whole entry): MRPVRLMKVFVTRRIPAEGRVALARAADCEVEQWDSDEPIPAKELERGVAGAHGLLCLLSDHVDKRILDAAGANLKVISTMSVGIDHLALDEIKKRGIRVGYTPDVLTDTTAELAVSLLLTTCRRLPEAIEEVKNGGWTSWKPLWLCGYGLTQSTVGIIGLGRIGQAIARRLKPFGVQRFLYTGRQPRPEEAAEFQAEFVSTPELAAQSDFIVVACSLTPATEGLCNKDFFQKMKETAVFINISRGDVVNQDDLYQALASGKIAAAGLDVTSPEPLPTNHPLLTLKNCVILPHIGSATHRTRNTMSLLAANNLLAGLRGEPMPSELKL
T4 sequence (P30519 whole entry): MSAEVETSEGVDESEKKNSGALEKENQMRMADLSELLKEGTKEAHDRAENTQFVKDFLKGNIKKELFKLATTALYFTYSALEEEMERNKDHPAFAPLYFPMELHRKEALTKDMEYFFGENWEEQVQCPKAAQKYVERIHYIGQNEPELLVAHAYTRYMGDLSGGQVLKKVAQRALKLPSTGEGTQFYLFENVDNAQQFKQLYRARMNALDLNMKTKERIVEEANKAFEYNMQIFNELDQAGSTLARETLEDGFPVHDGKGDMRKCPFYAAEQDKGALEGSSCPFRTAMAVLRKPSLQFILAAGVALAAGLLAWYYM
T3 sequence (O95881 27-172): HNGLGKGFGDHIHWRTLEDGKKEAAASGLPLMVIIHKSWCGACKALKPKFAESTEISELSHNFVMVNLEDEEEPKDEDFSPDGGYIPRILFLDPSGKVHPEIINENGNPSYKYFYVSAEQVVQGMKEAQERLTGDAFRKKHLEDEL
Description for PPARγ: (c) Gel-based competitive screening of DEP and analogues as PPARγ antagonists against recombinant human enzyme (top). hPPARγ was treated with each compound (20 μM) for 1 h followed by treatment with 24c-Cy3 (10 μM) as probe. Quantification of fluorescence intensity in the competitive screening for PPARγ antagonists (bottom; values±s.d. are shown; n=3).
Briefly, recombinant human PPARγ was pretreated with compounds at 20 μM concentration followed by the probe 24c-Cy3.
Samples were then treated with 10 μM 24c-Cy3 (0.5 μl of 25 × stock in DMSO) for 1 h at room temperature in the dark. SDS–PAGE reducing loading buffer (4 ×) was added and proteins were separated using a 10% SDS–PAGE gel. Gels were visualized at 625 nm using a Hitachi FMBIO II Multi-View fluorescence scanner, then stained using silver staining. Images were quantified with ImageJ.

With `C=C(C)C(=O)O[C@H]1CC2=C[C@H](C/C=C\[C@H]3OC(=O)C(=C)[C@H]13)OC2=O` [19a], on PPARγ, the “rank as covalent binder to PPARγ (competition of 24c-Cy3 labelling)” value is “most effective covalent binder”.
For `C=C(C)C(=O)O[C@H]1CC2=C[C@@H](C/C(C)=C/[C@H]3OC(=O)C(=C)[C@H]13)OC2=O` [deoxyelephantopin], the figures for the “LFQ ratio 20 µM Deoxyelephantopin/DMSO with 24c” value (in assay [1]; in assay [2]; on Heme oxygenase 2 (HMOX2)) were 0.00, 0.0425 and 0.14, respectively. For the same compound, the “competition of all 11 targets in situ” value in assay [3] is greater than 70%.

Values taken from publication PMC4992173, “Divergent synthesis and identification of the cellular targets of deoxyelephantopins” (Nature Communications, 2016).
